Source: PubChem BioAssay (NCI)
Values joined by “and” are separate entries in the source; they are usually repeats but may differ in a detail not shown here. Equal entries are not always repeated.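 In this assay, cells in 96-well plates receive the compound at five concentrations for 48 hours. Endpoints are linearly interpolated between the surrounding concentrations. GI50 is the concentration that inhibits growth by half. TGI is the concentration that stops growth completely.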

How the values were obtained:
Assay in all cases: NCI-60 cell line screen, 48 h
SR leukemia = test system: SR leukemia
BT-549 breast = test system: BT-549 breast
ACHN renal = test system: ACHN renal
A498 renal = test system: A498 renal
KM12 colon = test system: KM12 colon
A549 NSCLC = test system: A549 NSCLC
DU-145 prostate = test system: DU-145 prostate
SF-268 CNS = test system: SF-268 CNS
786-0 renal = test system: 786-0 renal
LOX IMVI melanoma = test system: LOX IMVI melanoma

`COc1ccc2ccccc2c1C1NC(=O)c2ccccc2N1` (stereo not given) gave a TGI (SR leukemia) of 1.67 µM, a TGI (BT-549 breast) of over 100 µM and a TGI (ACHN renal) of over 84.5 µM. It also gave a TGI (A498 renal) of 8.42 µM, a TGI (KM12 colon) of 19.9 µM and a TGI (A549 NSCLC) of over 51.8 µM. For the same molecule, the TGI (DU-145 prostate) was over 25.2 µM, the TGI (SF-268 CNS) was over 100 µM and the TGI (786-0 renal) was over 38 µM. It also gave a TGI (LOX IMVI melanoma) of 65.2 µM.

`C/C1=C/C(=O)O[C@@H]2C[C@@H](CC[C@H](C)/C=C\C=C\CC1)O[C@@](O)([C@@H]1CSC(=O)N1)C2` gave a TGI (SR leukemia) of over 10 µM, a TGI (BT-549 breast) of over 2.59 µM and a TGI (ACHN renal) of over 10 µM. It also gave a TGI (A498 renal) of 0.358 µM, a TGI (KM12 colon) of over 10 µM and a TGI (A549 NSCLC) of over 10 µM. For the same molecule, the TGI (DU-145 prostate) was over 10 µM, the TGI (SF-268 CNS) was 1.38 µM and the TGI (786-0 renal) was over 10 µM. The TGI (LOX IMVI melanoma) was over 3.88 µM.

`COc1cc(C(=O)N2CCN(c3ncnc4ccccc34)CC2)c(N)cc1OCc1ccccc1` was tested, and the GI50 (SR leukemia) was 4.11 µM, the TGI (SR leukemia) was 15.9 µM and the GI50 (BT-549 breast) was 11.3 µM. It also gave a TGI (BT-549 breast) of 25 µM, a GI50 (ACHN renal) of 14 µM and a TGI (ACHN renal) of 37.6 µM. The GI50 (A498 renal) was 5.47 µM, the TGI (A498 renal) was 19.2 µM and the GI50 (KM12 colon) was 14.9 µM. For the same molecule, the TGI (KM12 colon) was 38.4 µM, the GI50 (A549 NSCLC) was 16.5 µM and the TGI (A549 NSCLC) was 50.5 µM. It also gave a GI50 (DU-145 prostate) of 7.21 µM, a TGI (DU-145 prostate) of 19.9 µM and a GI50 (SF-268 CNS) of 14.1 µM. It also gave a TGI (SF-268 CNS) of 30.1 µM, a GI50 (786-0 renal) of 12.9 µM and a TGI (786-0 renal) of 26.2 µM. The GI50 (LOX IMVI melanoma) was 12.2 µM and the TGI (LOX IMVI melanoma) was 24.6 µM.

For `COc1cc(C2SCC(=O)N2c2ncc(C)s2)cc(OC)c1OC` (stereo not given), the GI50 (SR leukemia) was 3.06 µM, the TGI (SR leukemia) was over 50 µM and the GI50 (BT-549 breast) was 37.5 µM. For the same molecule, the TGI (BT-549 breast) was over 50 µM, the GI50 (ACHN renal) was 30.8 µM and the TGI (ACHN renal) was over 50 µM. It also gave a GI50 (A498 renal) of 0.366 µM, a TGI (A498 renal) of over 50 µM and a GI50 (KM12 colon) of 18.7 µM. For the same molecule, the TGI (KM12 colon) was over 50 µM, the GI50 (A549 NSCLC) was 45.4 µM and the TGI (A549 NSCLC) was over 50 µM. For the same molecule, the GI50 (DU-145 prostate) was 19.6 µM, the TGI (DU-145 prostate) was over 50 µM and the GI50 (SF-268 CNS) was over 50 µM. For the same molecule, the TGI (SF-268 CNS) was over 50 µM, the GI50 (786-0 renal) was over 50 µM and the TGI (786-0 renal) was over 50 µM. It also gave a GI50 (LOX IMVI melanoma) of 31.2 µM and a TGI (LOX IMVI melanoma) of over 50 µM.

For `Oc1ccc(-c2nc3ccccc3s2)cc1CN(Cc1ccccn1)Cc1ccccn1`, the GI50 (SR leukemia) was 2.14 µM, the TGI (SR leukemia) was over 100 µM and the GI50 (BT-549 breast) was 1.83 µM. For the same molecule, the TGI (BT-549 breast) was 15.6 µM, the GI50 (ACHN renal) was 0.0991 µM and the TGI (ACHN renal) was 3.91 µM. It also gave a GI50 (A498 renal) of 2.66 µM, a TGI (A498 renal) of 18.6 µM and a GI50 (KM12 colon) of 0.909 µM. It also gave a TGI (KM12 colon) of 15.6 µM, a GI50 (A549 NSCLC) of 0.833 µM and a TGI (A549 NSCLC) of 18.5 µM. For the same molecule, the GI50 (DU-145 prostate) was 1.26 µM, the TGI (DU-145 prostate) was 20.8 µM and the GI50 (SF-268 CNS) was 1 µM. It also gave a TGI (SF-268 CNS) of 16 µM, a GI50 (786-0 renal) of 0.353 µM and a TGI (786-0 renal) of 10.1 µM. The GI50 (LOX IMVI melanoma) was 1.21 µM and the TGI (LOX IMVI melanoma) was 10.7 µM.

With `O=C(O)C1(C(=O)O)CCC1.[NH2-].[NH2-].[Pt+2]` the GI50 (SR leukemia) was 94.6 µM, the TGI (SR leukemia) was over 230 µM and the GI50 (BT-549 breast) was 97.5 µM and 200 µM. For the same molecule, the TGI (BT-549 breast) was over 250 µM, the GI50 (ACHN renal) was 81.2 µM and the TGI (ACHN renal) was over 239 µM. The GI50 (A498 renal) was 224 µM and 154 µM, the TGI (A498 renal) was 248 µM and > 250 µM and the GI50 (KM12 colon) was 218 µM and > 250 µM. For the same molecule, the TGI (KM12 colon) was over 250 µM, the GI50 (A549 NSCLC) was 107 µM and 185 µM and the TGI (A549 NSCLC) was 226 µM and > 250 µM. The GI50 (DU-145 prostate) was 121 µM and 94.6 µM, the TGI (DU-145 prostate) was over 250 µM and the GI50 (SF-268 CNS) was 49.2 µM and 21.5 µM. For the same molecule, the TGI (SF-268 CNS) was 209 µM and 161 µM, the GI50 (786-0 renal) was 111 µM and 67.9 µM and the TGI (786-0 renal) was 248 µM and > 250 µM. For the same molecule, the GI50 (LOX IMVI melanoma) was 70.2 µM and 70.7 µM and the TGI (LOX IMVI melanoma) was 211 µM and 175 µM.

For `COc1cc(-c2cc(O)c(-c3ccc4ccccc4n3)c(=O)[nH]2)cc(OC)c1OC`, the TGI (SR leukemia) was 20.9 µM, the TGI (BT-549 breast) was over 100 µM and the TGI (ACHN renal) was over 89.8 µM. The TGI (A498 renal) was over 100 µM, the TGI (KM12 colon) was over 100 µM and the TGI (A549 NSCLC) was over 95 µM. For the same molecule, the TGI (DU-145 prostate) was over 85.6 µM, the TGI (SF-268 CNS) was over 80.5 µM and the TGI (786-0 renal) was over 69.6 µM. For the same molecule, the TGI (LOX IMVI melanoma) was over 53.8 µM.

With `O=C(Cc1ccc(F)c(F)c1)Nc1cc(C2(C(F)(F)F)CC2)nn1Cc1ccccc1` the GI50 (SR leukemia) was 3.89 µM, the TGI (SR leukemia) was over 15 µM and the GI50 (BT-549 breast) was 3.73 µM. For the same molecule, the TGI (BT-549 breast) was over 15 µM, the GI50 (ACHN renal) was 3.85 µM and the TGI (ACHN renal) was 14.2 µM. For the same molecule, the GI50 (A498 renal) was 0.548 µM, the TGI (A498 renal) was 4.35 µM and the GI50 (KM12 colon) was 4.41 µM. For the same molecule, the TGI (KM12 colon) was over 15 µM, the GI50 (A549 NSCLC) was 4.6 µM and the TGI (A549 NSCLC) was over 15 µM. It also gave a GI50 (DU-145 prostate) of 5.34 µM, a TGI (DU-145 prostate) of over 15 µM and a GI50 (SF-268 CNS) of 4.27 µM. The TGI (SF-268 CNS) was over 15 µM, the GI50 (786-0 renal) was 4.52 µM and the TGI (786-0 renal) was over 15 µM. The GI50 (LOX IMVI melanoma) was 4.9 µM and the TGI (LOX IMVI melanoma) was over 15 µM.

In the case of `NCC1OC(n2cnc3c(N)ncnc32)CC1O` (stereo not given), the TGI (SR leukemia) is reported as over 100 µM, the TGI (BT-549 breast) is reported as over 100 µM and the TGI (ACHN renal) is reported as over 100 µM. The TGI (A498 renal) was over 100 µM, the TGI (KM12 colon) was over 100 µM and the TGI (A549 NSCLC) was over 100 µM. It also gave a TGI (DU-145 prostate) of over 100 µM, a TGI (SF-268 CNS) of over 100 µM and a TGI (786-0 renal) of over 100 µM. It also gave a TGI (LOX IMVI melanoma) of over 100 µM.

For `C=C1CCC2C3(C)COC(c4ccccc4)OC3CCC2(C)C1/C=C/C1=CCOC1=O` (stereo not given), the GI50 (SR leukemia) was 1.27 µM, the TGI (SR leukemia) was 4.06 µM and the GI50 (BT-549 breast) was 6.29 µM. The TGI (BT-549 breast) was 20.8 µM, the GI50 (ACHN renal) was 8.74 µM and the TGI (ACHN renal) was 22 µM. It also gave a GI50 (A498 renal) of 17.9 µM, a TGI (A498 renal) of 46 µM and a GI50 (KM12 colon) of 2.91 µM. The TGI (KM12 colon) was 11.4 µM, the GI50 (A549 NSCLC) was 6.87 µM and the TGI (A549 NSCLC) was 48.1 µM. It also gave a GI50 (DU-145 prostate) of 3.77 µM, a TGI (DU-145 prostate) of 12.8 µM and a GI50 (SF-268 CNS) of 5.22 µM. It also gave a TGI (SF-268 CNS) of 22.5 µM, a GI50 (786-0 renal) of 13 µM and a TGI (786-0 renal) of 30 µM. The GI50 (LOX IMVI melanoma) was 1.7 µM and the TGI (LOX IMVI melanoma) was 4.25 µM.

`Cc1nc2ccccc2c(/C=C/c2ccc(Cl)cc2)c1C(=O)/C=C/c1ccc(C(F)(F)F)cc1` gave a GI50 (SR leukemia) of 0.25 µM, a TGI (SR leukemia) of 2.26 µM and a GI50 (BT-549 breast) of 0.623 µM. For the same molecule, the TGI (BT-549 breast) was 2.1 µM, the GI50 (ACHN renal) was 0.241 µM and the TGI (ACHN renal) was 0.594 µM. It also gave a GI50 (A498 renal) of 1.32 µM, a TGI (A498 renal) of 2.62 µM and a GI50 (KM12 colon) of 1.28 µM. The TGI (KM12 colon) was 3.46 µM, the GI50 (A549 NSCLC) was 1.41 µM and the TGI (A549 NSCLC) was 3.48 µM. The GI50 (DU-145 prostate) was 1.03 µM, the TGI (DU-145 prostate) was 2.53 µM and the GI50 (SF-268 CNS) was 0.872 µM. It also gave a TGI (SF-268 CNS) of 2.78 µM, a GI50 (786-0 renal) of 0.33 µM and a TGI (786-0 renal) of 1.26 µM. The GI50 (LOX IMVI melanoma) was 0.181 µM and the TGI (LOX IMVI melanoma) was 0.361 µM.

Molecule `O=C(NCCCO)c1cc(Cl)ccc1O` has a GI50 (SR leukemia) of 3.24 µM, a TGI (SR leukemia) of 18.2 µM and a GI50 (BT-549 breast) of 3.27 µM. For the same molecule, the TGI (BT-549 breast) was 12.7 µM, the GI50 (ACHN renal) was 3.73 µM and the TGI (ACHN renal) was 13.2 µM. The GI50 (A498 renal) was 4.43 µM, the TGI (A498 renal) was 12.7 µM and the GI50 (KM12 colon) was 2.43 µM. It also gave a TGI (KM12 colon) of 12.9 µM, a GI50 (A549 NSCLC) of 3.24 µM and a TGI (A549 NSCLC) of 14 µM. It also gave a GI50 (DU-145 prostate) of 4.41 µM, a TGI (DU-145 prostate) of 16.1 µM and a GI50 (SF-268 CNS) of 6.52 µM. It also gave a TGI (SF-268 CNS) of 20.2 µM, a GI50 (786-0 renal) of 3.14 µM and a TGI (786-0 renal) of 11.8 µM. It also gave a GI50 (LOX IMVI melanoma) of 2.5 µM and a TGI (LOX IMVI melanoma) of 11.5 µM.
